Here are results for eight molecules from US20220169646A1, “HETEROCYCLIC COMPOUNDS AND USES THEREOF” (Nuvation Bio Inc., priority 2019, published 2022).

The test system of one experiment is A427 cells. The experiment in a line: Cytotoxicity assay in A427 cell line (resazurin). The class given is cell-based. The settings on record: Homo sapiens, A-427, A427 lung epithelial cell line, 72 hr incubation, inhibition of proliferation. Here is the method: A427 (HTB-53; ATCC), a lung epithelial cell line, was seeded in medium (MEM, 41090101; Gibco) at a cell count of 1500 cells per 100 μL per well in a 96 well edge plate (167425; ThermoFisher). Cells were allowed to grow at 37° C. for 24 hr in 5% CO2 environment (culture conditions) in a Nuaire incubator (humidified). Serially diluted test compounds (100 μL) within the desired testing concentration ranges were added to the culture plate and the cells were further incubated in culture conditions for 72 hr. The experiment was terminated at the designated incubation time by replacing the medium with 100 μL of 1 mM of resazurin (R7017; Sigma) prepared in culture medium, and the plates were further incubated in culture conditions for 4-6 hr. Fluorescence was recorded using a multimodal plate reader (Biotek Synergy Neo) at an excitation wavelength of 535 nm and emission wavelength of 590 nm to obtain relative fluorescence units. Data were analysed as follows: the background fluorescence (blank containing only medium) value was subtracted from each reading and normalized with the vehicle control (DMSO treated cells) to obtain percent survival/proliferation. Percent survival was subtracted from 100 to get the percent inhibition of proliferation which was used to calculate IC50 values. Potency of compounds in other cell lines (such as A549, As-Pc-1, Panc 10.05, A172, U-87 MG) may be determined in an analogous manner.
On the technique in general: Alamar Blue is a resazurin reagent that responds to reducing activity.

The target of another experiment is T1, WEE1 kinase enzyme (Homo sapiens, UniProt P30291).
T1 construct: purchased Invitrogen, Life Technologies PR7373A
T1 sequence (P30291 whole entry): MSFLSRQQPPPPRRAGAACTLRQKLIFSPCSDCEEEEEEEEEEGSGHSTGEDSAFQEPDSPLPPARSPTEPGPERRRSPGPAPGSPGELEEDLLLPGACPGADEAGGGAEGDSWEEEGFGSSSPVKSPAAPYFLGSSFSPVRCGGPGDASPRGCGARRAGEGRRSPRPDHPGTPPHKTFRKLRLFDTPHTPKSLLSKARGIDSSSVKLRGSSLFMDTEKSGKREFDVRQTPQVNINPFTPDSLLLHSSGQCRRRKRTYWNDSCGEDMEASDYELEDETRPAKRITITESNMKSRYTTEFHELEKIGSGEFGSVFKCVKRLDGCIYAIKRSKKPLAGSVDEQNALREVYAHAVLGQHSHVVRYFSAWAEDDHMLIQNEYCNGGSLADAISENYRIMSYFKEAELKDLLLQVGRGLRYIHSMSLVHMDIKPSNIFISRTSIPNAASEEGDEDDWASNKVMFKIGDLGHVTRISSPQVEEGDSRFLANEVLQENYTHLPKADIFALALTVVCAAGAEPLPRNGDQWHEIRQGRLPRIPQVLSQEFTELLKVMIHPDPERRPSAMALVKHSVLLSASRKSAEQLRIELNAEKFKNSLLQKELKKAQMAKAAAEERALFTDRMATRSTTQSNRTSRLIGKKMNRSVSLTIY
The experiment can be described thus: WEE1 IC50 determination, LanthaScreen Terbium Labeled TR-FRET kinase assay. The class given is biochemical. The settings on record: WEE1 enzyme 1 nM, ATP 10 μM, 1 h. As to the method: IC50 values of compounds against WEE1 kinase enzyme were determined by LanthaScreen™ Terbium Labeled TR-FRET assay. Kinase assays were performed in 1× kinase buffer (#PV6135, Invitrogen, Life Technologies Grand Island, N.Y.) where total reaction volume was 10 μL in low-volume 384-well plates (#4511, Corning). Serially diluted compounds (3-fold) were incubated with WEE1 Enzyme (1 nM) (#PR7373A, Invitrogen, Life Technologies, Grand Island, N.Y.) for 10 min, and a mixture of ATP (10 μM) (#A1852, Sigma, St. Louis, Mo.) and fluorescent-PolyGT substrate (200 nM) (#PV3610, Invitrogen, Life Technologies, Grand Island, N.Y.) was added and incubated in the dark at room temperature for 1 h. After 1 h, a 10 μL stop solution containing terbium labeled antibody (4 nM) (#PV3529, Invitrogen, Life Technologies Grand Island, N.Y.) and EDTA (#E5134, Sigma, St. Louis, Mo.) (20 mM) in TR-FRET dilution buffer (#PV3574, Invitrogen, Life Technologies, Grand Island, N.Y.) was added. Readings were taken in a Synergy Neo Plate reader (BioTek, Winooski, Vt.) at single excitation of 340 nm and dual emission at 495 nm and 520 nm respectively.
The % activity of test samples was calculated as (Sample−Min)*100/(Max−Min). [Max: DMSO control, complete reaction with enzyme & DMSO and Min: No enzyme & DMSO]. Percent inhibition (100−% activity) was fitted to the “four-parameter logistic model” in XLfit for determination of IC50 values.

Experiment [1] concerns phospho-CDC2 (Tyr15) in A427 cells. The experiment can be described thus: Phospho-CDC2 (Tyr15) sandwich ELISA in A427 cells. The class given is cell-based. The settings on record: Homo sapiens, A-427, PathScan Phospho-CDC2 (Tyr15) ELISA, specified time (e.g., 24 hr). As to the method: Changes in the levels of phospho-CDC2 following treatment of cells with test compounds were assessed by enzyme-linked immunosorbent assay (ELISA). A427 cells were plated in 6-well plates and cultured for 24 hr to approximately 80-90% confluency. Medium was replaced, and the cells were treated with the vehicle control or the test compound at several different concentrations. After incubation of treated cells in cell culture conditions for a specified time (e.g., 24 hr), cells were rinsed with ice-cold PBS and lysed in 1× cell lysis buffer containing protease inhibitors and phosphatase inhibitors. The cells were scraped from the plate with a cell scraper after a brief incubation on ice and transferred to a centrifuge tube, and then subjected to three freeze-thaw cycles in liquid nitrogen and a 37° C. water bath for further lysis. The lysates were centrifuged to pellet cell debris (using, for example, a 10 min centrifugation of 2000×g at 4° C.) and the supernatants transferred to fresh tubes on ice. The protein concentrations of the samples were estimated by the Bradford method or equivalent. The ELISA was carried out with the PathScan® Phospho-CDC2 (Tyr15) Sandwich ELISA Kit (Cat. #7176, Cell Signaling Technology, Danvers, Mass.) according to the manufacturer's instructions.
Background: ELISA stands for enzyme-linked immunosorbent assay.

SMILES strings stand for the structures. Where only a bound is given, the exact number is not on record here.

As a reminder, the IC50 is the concentration that inhibits the measured activity by half.

With `CC(C)n1cc(-n2c3nc(Nc4ccc5c(c4)CCNC5)ncc3c(=O)n2C(C)C)cn1` [Compound 1.1, 2-isopropyl-1-(1-isopropyl-1H-pyrazol-4-yl)-6-((1,2,3,4-tetrahydroisoquinolin-6-yl)amino)-1,2-dihydro-3H-pyrazolo[3,4-d]pyrimidin-3-one], the 50% inhibitory concentration (IC50) is over 30000 nM in the experiment on A427 cells and 107 nM on WEE1 kinase enzyme.
Consider `COCC(C)(C)c1cccc(-n2c3nc(Nc4ccc5c(c4)CNCC5)ncc3c(=O)n2C(C)C)n1` [Compound 1.2, 2-isopropyl-1-(6-(1-methoxy-2-methylpropan-2-yl)pyridin-2-yl)-6-((1,2,3,4-tetrahydroisoquinolin-7-yl)amino)-1,2-dihydro-3H-pyrazolo[3,4-d]pyrimidin-3-one], for which the IC50 with A427 cells worked out at 295 nM; at WEE1 kinase enzyme, 4 nM.
As to `CC(C)n1c(=O)c2cnc(Nc3ccc4c(c3)CCNC4)nc2n1-c1cccc(C(=O)N(C)C)c1` [Compound 1.3, 3-(2-isopropyl-3-oxo-6-((1,2,3,4-tetrahydroisoquinolin-6-yl)amino)-2,3-dihydro-1H-pyrazolo[3,4-d]pyrimidin-1-yl)-N,N-dimethylbenzamide], the concentration for half-maximal inhibition (IC50) in the experiment on A427 cells was determined as 8160 nM; on WEE1 kinase enzyme, 2 nM.
Regarding `CC(C)n1c(=O)c2cnc(Nc3ccc4c(c3)CNCC4)nc2n1-c1cccc(C(=O)N(C)C)c1` [Compound 1.4, 3-(2-isopropyl-3-oxo-6-((1,2,3,4-tetrahydroisoquinolin-7-yl)amino)-2,3-dihydro-1H-pyrazolo[3,4-d]pyrimidin-1-yl)-N,N-dimethylbenzamide], the values for the IC50 in the experiment with A427 cells and on WEE1 kinase enzyme were 3510 nM and 3 nM, respectively.
Turning to `CC(C)N1CCc2cc(Nc3ncc4c(=O)n(C(C)C)n(-c5ccnc(C(C)(C)C)c5)c4n3)ccc2C1` [Compound 1.5, 1-(2-(tert-butyl)pyridin-4-yl)-2-isopropyl-6-((2-isopropyl-1,2,3,4-tetrahydroisoquinolin-6-yl)amino)-1,2-dihydro-3H-pyrazolo[3,4-d]pyrimidin-3-one], the IC50 in the experiment on A427 cells is 2070 nM; at WEE1 kinase enzyme it was 21 nM.
Consider `CC(C)n1c(=O)c2cnc(Nc3ccc4c(c3)CNCC4)nc2n1-c1ccc(C#N)cc1` [Compound 1.85, 4-(2-isopropyl-3-oxo-6-(1,2,3,4-tetrahydroisoquinolin-7-ylamino)-2,3-dihydro-1H-pyrazolo[3,4-d]pyrimidin-1-yl)benzonitrile], for which the IC50 was 1860 nM with A427 cells, 5 nM at WEE1 kinase enzyme and 278 nM in experiment [1].
In the case of `CC(C)n1c(=O)c2cnc(Nc3ccc4c(c3)CCNC4)nc2n1-c1ccc(C#N)cc1` [Compound 1.86, 4-(2-isopropyl-3-oxo-6-(1,2,3,4-tetrahydroisoquinolin-6-ylamino)-2,3-dihydro-1H-pyrazolo[3,4-d]pyrimidin-1-yl)benzonitrile], the IC50 in the experiment with A427 cells was determined as 1070 nM; on WEE1 kinase enzyme, 8 nM.
Consider `CC(C)n1c(=O)c2cnc(Nc3ccc4c(c3)CCN(CCCN)C4)nc2n1-c1ccnc(C(C)(C)C)c1` [Compound 1.87, 2,2,2-trifluoroacetaldehyde compound with 6-((2-(3-aminopropyl)-1,2,3,4-tetrahydroisoquinolin-6-yl)amino)-1-(2-(tert-butyl)pyridin-4-yl)-2-isopropyl-1,2-dihydro-3H-pyrazolo[3,4-d]pyrimidin-3-one], for which the IC50 at WEE1 kinase enzyme turned out to be 4 nM.
